Test results as given in patent US11371016B2, “Method for producing retinal tissue” (SUMITOMO PHARMA CO., LTD., priority 2016, dated 2022).

Experiments:
[1] = system: human iPS cells (1231A3 strain); assay: Differentiation of feeder-free cultured human iPS cells into retinal tissue; immunostaining of cell aggregates for Rx and Chx10; type: cell-based; settings: day 17; for proportion of Rx positive cells in the total cells: BMP4 1.5 nM from day 3
[2] = system: human iPS cells (1231A3 strain); assay: as above; type: cell-based; settings: IWR-1e 3 μM in step 2 and step 3, BMP4 1.5 nM from day 3
Method: Human iPS cells (1231A3 strain, obtained from Kyoto University) were cultured under feeder free according to the method described in “Scientific Reports, 4, 3594 (2014)”. As a feeder-free medium, StemFit (registered trade mark) medium (AK03N, manufactured by Ajinomoto Co., Inc.) was used, and as a feeder-free scaffold, Laminin 511-E8 (manufactured by Nippi, Inc.) was used. As a specific maintenance culture operation, subconfluent human iPS cells (1231A3 strain) were first washed with PBS, and dispersed into single cells by using TrypLE Select (manufactured by Life Technologies). Thereafter, the aforementioned human iPS cells dispersed into single cells were seeded in a plastic culture dish coated with Laminin 511-E8, and cultured under feeder-free conditions in StemFit (registered trade mark) medium in the presence of Y27632 (ROCK inhibiting substance, 10 μM). When a 6-well plate (manufactured by Iwaki, for cell culture, culture area 9.4 cm^2) was used as the aforementioned plastic culture dish, the number of plated cells for the aforementioned human iPS cells dispersed into single cells was adjusted to 1.0×10^4. One day after seeding, the entire amount of the medium was changed with StemFit (registered trade mark) medium free of Y27632. Thereafter, once in 1-2 days, the entire amount of the medium was changed with StemFit (registered trade mark) medium free of Y27632. Thereafter, the cells were cultured until 6 days after seeding when they became subconfluent (60% of culture area is covered with cells). As a specific example of step 1 (Precondition) of the present production method, the following operation was performed. Subconfluent human iPS cells (1231A3 strain) were first washed with PBS, and dispersed into single cells by using TrypLE Select (manufactured by Life Technologies). Thereafter, the aforementioned human iPS cells dispersed into single cells were seeded in a plastic culture dish (manufactured by Iwaki) coated with Laminin 511-E8, and cultured under feeder-free conditions in StemFit (registered trade mark) medium in the presence of Y27632 (ROCK inhibiting substance, 10 μM). When a 6-well plate (manufactured by Iwaki, culture area 9.4 cm^2) was used as the aforementioned plastic culture dish, the number of plated cells for the aforementioned human iPS cells dispersed into single cells was adjusted to 1.0×10^4. When a 60 mm dish (manufactured by Iwaki, for cell culture, culture area 21 cm^2) was used as the aforementioned plastic culture dish, the number of plated cells for the aforementioned human iPS cells dispersed into single cells was adjusted to 2.0×10^4. One day after seeding, the entire amount of the medium was changed with StemFit (registered trade mark) medium free of Y27632. […]

[3] = Precondition SB431542 5 μM + SAG 300 nM in step 1, day 17

Row | Structure (SMILES) | proportion of Rx positive cells in the total cells ([1]; Example 2 Condition 2: Precondition SAG 300 nM one day in step 1, no Wnt inhibiting substance, no SAG in step 2) | Chx10 status of Rx positive cells (serial sections) ([1]; Example 2 Condition 2: Precondition SAG 300 nM, no IWR-1e, no SAG in step 2) | proportion of Rx positive cells in the total cells ([1]; Example 2 Condition 4: Precondition SAG 300 nM in step 1, SAG 30 nM in step 2, no IWR-1e) | Chx10 status of Rx positive cells (serial sections) ([1]; Example 2 Condition 4: Precondition SAG 300 nM, SAG 30 nM in step 2, no IWR-1e) | neural tissue formation ([1]; Example 2 Conditions 2-5: Precondition treatment with SAG 300 nM in step 1, versus Condition 1 without Precondition (not formed)) | proportion of Rx positive cells in the total cells ([1]; Example 2 Condition 3: Precondition SAG 300 nM in step 1, IWR-1e 3 μM in step 2 and step 3) | Chx10 status of Rx positive cells (serial sections) ([1]; Example 2 Condition 3: Precondition SAG 300 nM, IWR-1e 3 μM in step 2 and step 3) | proportion of Rx positive cells in the total cells ([1]; Example 2 Condition 5: Precondition SAG 300 nM in step 1, SAG 30 nM in step 2, IWR-1e 3 μM in step 2 and step 3) | Chx10 status of Rx positive cells (serial sections) ([1]; Example 2 Condition 5: Precondition SAG 300 nM, SAG 30 nM in step 2, IWR-1e 3 μM in step 2 and step 3) | Chx10 positive (strong positive) cells [2, 3] | proportion of Rx positive cells in the total cells [2, 3] | Chx10 positiveness in the cell aggregate ([2]; no Precondition in step 1, day 17) | proportion of Rx positive cells in the total cells ([2]; no Precondition in step 1, day 17 of suspension culture)
1 | CNC1CCC(N(Cc2cccc(-c3ccncc3)c2)C(=O)c2sc3ccccc3c2Cl)CC1 (stereo not shown) [SAG] | about 40% | Chx10 co-positive | about 60% | Chx10 co-positive | a neural tissue was formed | – | – | – | – | – | – | – | –
2 | O=C(Nc1cccc2cccnc12)c1ccc(N2C(=O)[C@@H]3[C@H](C2=O)[C@@H]2C=C[C@H]3C2)cc1 [IWR-1e, 4-[(3aR,4S,7R,7aS)-1,3,3a,4,7,7a-hexahydro-1,3-dioxo-4,7-methano-2H-isoindol-2-yl]-N-8-quinolinyl-benzamide] | – | – | – | – | – | about 90% | Chx10 co-positive | about 90% | Chx10 co-positive | about 60% | about 60% | weak Chx10 positiveness | about 40%
